Among the data in PMC3148428 (2011) are IC50 values, retold here.

This experiment concerns the target T1, ABCG2 (Rattus norvegicus, UniProt Q80W57).
T1 sequence (Q80W57 1-657): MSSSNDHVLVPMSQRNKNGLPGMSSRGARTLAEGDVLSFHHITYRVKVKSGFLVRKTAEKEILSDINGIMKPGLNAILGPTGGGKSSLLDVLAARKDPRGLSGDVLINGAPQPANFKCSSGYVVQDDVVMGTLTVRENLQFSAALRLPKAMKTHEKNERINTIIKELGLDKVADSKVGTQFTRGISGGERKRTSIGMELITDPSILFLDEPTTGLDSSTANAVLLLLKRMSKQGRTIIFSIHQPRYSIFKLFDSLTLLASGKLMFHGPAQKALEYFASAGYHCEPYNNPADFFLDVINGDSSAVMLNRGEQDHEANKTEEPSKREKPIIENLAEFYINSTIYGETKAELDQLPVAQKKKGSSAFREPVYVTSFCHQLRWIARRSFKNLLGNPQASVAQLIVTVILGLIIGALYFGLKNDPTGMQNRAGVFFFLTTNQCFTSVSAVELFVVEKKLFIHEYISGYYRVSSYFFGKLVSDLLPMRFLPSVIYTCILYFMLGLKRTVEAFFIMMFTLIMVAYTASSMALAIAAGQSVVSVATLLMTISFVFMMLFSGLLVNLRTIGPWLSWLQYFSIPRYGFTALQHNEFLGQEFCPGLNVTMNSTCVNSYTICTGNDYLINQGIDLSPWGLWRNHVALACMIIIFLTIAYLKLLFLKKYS

By IC50 is commonly meant the point on the concentration scale where inhibition reaches its midpoint. Read a low IC50 as inhibition by little substance. Compound `Cc1cn(-c2cc(NC(=O)c3ccc(C)c(Nc4nccc(-c5cccnc5)n4)c3)cc(C(F)(F)F)c2)cn1` [Tasigna] had an IC50 of 93.2 nM.
